In patent US20090130064A1, “DIFFERENTIATION OF STEM CELLS AND STABILIZATION OF PHENOTYPICAL PROPERTIES OF PRIMARY CELLS” (priority 2004, published 2009):

Legend:
[1] = Biotransformation by human liver microsomes; type: in vitro ADME; details: 140 μM TSA, 150 min
Experimental: Human liver specimens (n=3) were acquired from organ donors at the Academic Hospital of the VUB in accordance with the regulations of the local Medical Ethical Committee and immediately frozen in liquid nitrogen. While human liver microsomes were prepared from frozen liver tissue, rat livers (n=3) were freshly isolated for immediate microsome preparation. Microsomal 7-ethoxyresorufin-O-deethylase (EROD) [31]was used as a marker enzyme to evaluate the microsomal biotransformation activity before and after storage. Incubations were carried out in a 100 mM sodium potassium phosphate buffer pH 7.4 in the presence of a NADPH-generating system (0.5 mM NADP^+, 10 mM glucose 6-phosphate, 2 U/ml glucose 6-phosphate dehydrogenase and 0.6 mM MgCl2). Microsomes (0.0-2.0 mg microsomal protein/ml) were incubated with 140 μM substrate at 37° C. for 150 min. Boiled microsomes ([…]) served as a control. Biotransformation reactions were initiated by addition of substrate and, at selected time intervals, terminated by dilution with ice-cold acetonitrile (1:2.5).
After centrifugation (2000 g, 45 min, 4° C.) of the diluted microsomal samples, the clear supernatant was injected onto a HPLC column. Samples from incubations with hepatocytes were thawed on ice and centrifugated (120 g, 2 min). […]

CYP 2B1/2 = CYP 2B1/2 activity (penthoxyresorufin conversion) in cultured rat hepatocytes; type: cell-based
Source text: Hepatocytes were isolated from male Sprague-Dawley rats by a two-step collagenase perfusion as described (De Smet et al. In ‘Methods in Molecular Biology, Vol. 107: Cytochrome P450 Protocols’, Philips IR and Shephard E A, eds., p.p 295-301, Humana Press, Totowa, 1998). Hepatocytes were cultivated in monolayer cultures with Willam's E Medium (WE) for 7 days. […] The maintenance of differentiation characteristics was studied after 2, 4, and 7 days (D2, D4, D7) of culture.
Phase I biotransformation was assessed by means of activity measurements of the microsomal cytochrome P450 (CYP) 1A1 and 2B1/2 iso-enzymes, using standard techniques known in the art (i.e., measuring conversion of ethoxyresorufin into hydroxyresorufin for CYP 1A1 and conversion of penthoxyresorufin to hydroxyresorufin for CYP 2B1/2) (Burke et al. Drug Metab Dispos 2:583-588, 1974). Microsomes were prepared from freshly isolated and hepatocytes cultured for 7 days according to Hales et al. (Biochem Pharmacol 26:555-556, 1977).

Cx26 = Cx26 expression and localization (immunoblotting, immunocytochemistry) in rat hepatocytes; type: cell-based; details: 1 μM TSA
Experimental: (§1) In all conditions, the hepatocytes were cultivated as a monolayer configuration, and samples were taken at days 1, 4 and 7 (D1, D4, D7) of the cultivation time.
(§2) Proteins (25 or 50 μg) were resolved on SDS-PAGE (7.5, 10 or 12%) and blotted afterwards onto nitrocellulose membranes. After blocking with non-fatty milk, membranes were incubated with appropriate concentrations of primary and secondary antibodies (HRP labeled). Proteins were detected using the ECL detection system (Amersham Biosciences). Primary antibodies: Cx26 (Zymed, 1/250), Cx32 (Sigma, 1/500), Cx43 (Zymed, 1/100).
(§3) Hepatocytes were fixed with cold ethanol, peremeabilised with Triton X-100 (Sigma) and blocked with non-fatty milk. Following incubation with appropriate concentrations of primary and secondary antibodies (FITC or TRITC labeled), samples were mounted with DAPI-containing Vectashield (Vector Laboratories). Detection was performed by fluorescence microscopy (Leica DMR/XA).

Cx32 = Cx32 expression (immunoblotting) in rat hepatocytes; type: cell-based; details: 1 μM TSA
Experimental: as §1, §2, §3

hMSC = experiment: LDH-leakage cytotoxicity in hMSC; type: cell-based, human
Experimental: Low-density hMSC (CD45^−, Thy^+) were cultivated at 21.5 10^3 cells cm^2 on 1 mg/ml collagen gel type I matrix in the presence of liver-specific (LSP) cytokines, added either as a cocktail [basal medium supplemented with 10 ng/ml FGF-4 (fibroblast growth factor type 4), 20 ng/ml HGF (hepatic growth factor) (all from R&D), 1×ITS (insulin, transferrin, selenious acid) and 0.05 μM Dex (dexamethasone) (all from Sigma)] or sequentially [basal medium supplemented with 10 ng/ml FGF-4, following basal media supplemented with 20 ng/ml HGF (R&D) and finally basal medium supplemented with 20 ng/ml HGF, 1×ITS and 0.05 μM Dex]. Basal medium consisted of 60% (v/v) DMEM-LG/40% (v/v) MCDB-201 supplemented with 1 mg/ml LA-BSA, 100 IU/ml penicillin, 100 μg/ml streptomycin, 0.1 mM L-ascorbic acid, 4 μg/ml nicotinamide, 27.3 mg/l sodium-pyruvate and 1.623 mM glutamin (all from Sigma). The media were changed every three days.
The assay was done with an LDH-kit (Merck 1 14869.0001; Ecoline 1S) according to the manufacturer's recommendations.

CC(C=CC(=O)NO)=CC(C)C(=O)c1ccc(N(C)C)cc1 (stereo not drawn) [TSA]
biotransformation in microsome suspensions [1]: slow and incomplete biotransformation
activity of CYP 2B1/2 versus EtOH-treated controls (CYP 2B1/2; 1 μM TSA starting at 0 h or 4 h, day 4 and 7): significantly higher
CYP 2B1 Activity (CYP 2B1/2; 7-day conventionally cultured adult rat hepatocytes, 1 μm TSA): 4.1 ± 0.7 pmol resorufin/minute mg microsomal protein
expression of Cx26 (Cx26): decreases the expression
localization of Cx26 (Cx26): perinuclear localization
expression of Cx32 (Cx32): induces the expressions
cytotoxicity (LDH leakage) (hMSC; 1 μM TSA): did not cause immediate cell death
cell lethality (LDH leakage) (hMSC; 1 μM TSA, from day 13 (cocktail) and day 3 (sequential) on): significantly downregulated cell lethality
cytotoxicity (LDH leakage) (hMSC; 5 and 25 μM TSA from day 0 until addition of HGF): immediate cell death
